Test results reported in publication PMC7904559, “QSAR and molecular docking for the search of AOX inhibitors: a rational drug discovery approach” (Journal of Computer-Aided Molecular Design, 2020).
Read-outs that look alike come from different tables or passages of the source.

Key:
cytochrome bc1 complex = details: cited from earlier work
[1] = target: trypanosome alternative oxidase (TAO) (Trypanosoma brucei brucei, UniProt Q26710); assay: biochemical
T. vivax = details: T. vivax-infected mouse; single intramuscular dose of 50 mg/kg or 6 mg/kg on 4 consecutive days; cited from earlier work
[2] = design: method as in PMID 30693533; details: cited from earlier work
[3] = target: alternative oxidase of Trypanosoma brucei (TAO); details: cited from earlier work; for pIC50 Exp.: training set, calculated as -log IC50
[4] = IC50, recombinant AOX expressed in E. coli membranes, mean ± SD of n = 3 isolations, 37 °C, pH 7.4, 1.25 mM NADH, 1 mM KCN
[5] = pIC50 Exp, external validation set, -log IC50 of values measured by respirometry
[6] = wild type TAO, Table 2, read-out: IC50
[7] = read-out: IC50 (50% inhibitory concentration), against TAO

Chain of trypanosome alternative oxidase (TAO) (Q26710 whole entry): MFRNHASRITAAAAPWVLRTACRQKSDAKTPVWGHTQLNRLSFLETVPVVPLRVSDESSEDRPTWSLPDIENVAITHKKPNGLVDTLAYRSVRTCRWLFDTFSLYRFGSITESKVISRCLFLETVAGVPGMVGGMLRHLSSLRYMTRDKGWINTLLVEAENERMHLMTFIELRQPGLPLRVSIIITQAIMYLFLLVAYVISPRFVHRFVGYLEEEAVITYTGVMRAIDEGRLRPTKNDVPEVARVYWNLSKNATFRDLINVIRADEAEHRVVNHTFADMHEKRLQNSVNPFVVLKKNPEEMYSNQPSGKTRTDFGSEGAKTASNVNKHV

| SMILES | IC50 [3, 7] | pIC50 Exp. [3] | other results |
| --- | --- | --- | --- |
| CC(/C=C/[C@@]1(C)[C@H](C)CCC(=O)[C@@H]1C)=C\Cc1c(O)c(Cl)c(C)c(C=O)c1O [Ascochlorin] | – | – | inhibition of cytochrome bc1 complex (cytochrome bc1 complex): potent inhibitor; IC50 [1, 4]: ~7 nM; IC50 [1, 5]: 7.4 nM |
| C/C(=C\Cc1c(O)c(Cl)c(C)c(C=O)c1O)CC/C=C(\C)[C@@H]1CC(=O)C(C)(C)O1 [Ascofuranone] | – | – | inhibition of mammalian cytochrome bc1 complex (cytochrome bc1 complex; mammalian, concluded from survival of mice following AF treatment): not an effective inhibitor; treatment outcome (T. vivax): successful treatment; blood clearance [2]: rapid; oral bioavailability [2]: low |
| CC(C)=CCC/C(C)=C/Cc1c(O)c(Cl)c(C)c(C=O)c1O [Colletochlorin B] | – | – | IC50 [3, 6]: 0.2 nM |
| CC(C)=CCc1c(O)c(Cl)c(C)c(C=O)c1O [Colletochlorin D] | – | – | IC50 [1, 5]: 33 nM |
| C/C(=C\Cc1c(O)c(Cl)c(C)c(C=O)c1O)CC/C=C(\C)COC(=O)C(C)(C)C [Compound 1] | 0.4 nM | 9.398 | – |
| C/C(=C\CC/C(C)=C/Cc1c(O)c(Cl)c(C)c(C=O)c1O)CO [Compound 2] | 1.2 nM | 8.921 | – |
| CC(=O)OC(C)/C(C)=C/CC/C(C)=C/Cc1c(O)c(Cl)c(C)c(C=O)c1O (stereo not shown) [Compound 3] | 1.4 nM | 8.854 | – |
| C/C=C/c1c(O)c(Cl)c(C)c(C=O)c1O [Compound 7a] | – | 7.000 | – |
| CCC/C=C/c1c(O)c(Cl)c(C)c(C=O)c1O [Compound 7b] | 3.8 nM | 8.420 | – |
| Cc1c(Cl)c(O)c(CCCCCCCCO)c(O)c1C=O [Compound 11] | 6 nM | 8.222 | – |
| Cc1c(Cl)c(O)c(CCCCCCCC(=O)O)c(O)c1C=O [Compound 12] | 40 nM | 7.398 | – |
| CC(=O)c1c(C)c(Cl)c(O)c(C/C=C(\C)CC/C=C(\C)C2CC(=O)C(C)(C)O2)c1O (stereo not shown) [Compound 14] | 2.5 nM | 8.602 | – |
| CC(=O)c1c(C)c(Cl)c(O)c(C/C=C(\C)CC/C=C(\C)COC(=O)C(C)(C)C)c1O [Compound 15] | 0.7 nM | 9.155 | – |
| CC(=O)c1c(C)c(Cl)c(O)c(C/C=C(\C)CCC=C(C)C)c1O [Compound 16] | – | 9.824 | IC50 [3, 6]: 0.15 nM |
| C/C(=C\Cc1c(O)c(Cl)c(C)c(/C=N\O)c1O)CC/C=C(\C)C1CC(=O)C(C)(C)O1 (stereo not shown) [Compound 17] | 28 nM | 7.553 | – |
| COC(=O)c1c(C)c(Cl)c(O)c(C/C=C(\C)CCC=C(C)C)c1O [Compound 18] | 45 nM | 7.347 | – |
| CCCCCCCCc1c(O)c(Cl)c(C)c([N+](=O)[O-])c1O [Compound 20] | 0.45 nM | 9.347 | – |
| C/C(=C\Cc1c(O)c(Cl)cc(C=O)c1O)CC/C=C(\C)C1CC(=O)C(C)(C)O1 (stereo not shown) [Compound 25] | 0.45 nM | 9.347 | – |
| CC(C)=CCC/C(C)=C/Cc1c(O)c(Cl)cc(C=O)c1O [Compound 26] | 0.23 nM | 9.638 | – |
| CC(C)=CCC/C(C)=C/Cc1c(O)cc(C)c(C=O)c1O [Compound 27] | 0.5 nM | 9.301 | – |
| CC(C)=CCC/C(C)=C/Cc1c(O)ccc(C=O)c1O [Compound 28] | 38 nM | 7.420 | – |
| COc1c(Cl)c(C)c(C=O)c(O)c1C/C=C(\C)CC/C=C(\C)C1CC(=O)C(C)(C)O1 (stereo not shown) [Compound 29] | 4 nM | 8.398 | – |
| CC(C)=CCC/C(C)=C/CC/C(C)=C/Cc1c(O)c2ccccc2oc1=O [Ferulenol] | – | – | IC50 [1, 5]: 53.1 nM |
| CCCCCCCCOC(=O)c1cc(O)c(O)c(O)c1 [Octyl gallate] | – | – | IC50 [1, 5]: 230 nM |
| CCCOC(=O)c1cc(O)c(O)c(O)c1 [Propyl gallate] | – | – | IC50 [3, 6]: 200 nM; IC50 [1, 4]: 1400 nM; IC50 ([1]; external validation set, -log IC50 of values measured by respirometry, read-out: pIC50 Exp (converted)): 1400 nM |
